Data set [1] can be described thus: Chemical stability of compound in acetate buffer at pH 4 at 37 degreeC assessed as half life measured for 24 hrs by reversed phase-HPLC analysis. The data set is classed as physicochemical.
A short description of data set [2]: Chemical stability of compound in phosphate buffer at pH 6.5 at 37 degreeC assessed as half life measured for 24 hrs by reversed phase-HPLC analysis. The class given is physicochemical.
Data set [3] in a line: physchem. Particulars: aqueous buffer, pH 1.
Description: Solubility of compound in aqueous buffer at pH 1 at 25 degreeC by reversed phase-HPLC analysis
Data set [4] can be described thus: physchem. Conditions: aqueous buffer, pH 6.5.
Description: Solubility of compound in aqueous buffer at pH 6.5 at 25 degreeC by reversed phase-HPLC analysis
The nature of data set [5]: Chemical stability of compound in 0.1 M HCl at pH 1 at 37 degreeC assessed as half life measured for 24 hrs by reversed phase-HPLC analysis. The class given is physicochemical.
Data set [6] in a line: Tmax in Famotidine-pretreated Sprague-Dawley rat at 10 mg/kg, po measured for 24 hrs by UPLC-MS/MS analysis. The data set is classed as ADME, organism-based. Conditions: in vivo.
Data set [7] in a line: AUC (total) in Famotidine-pretreated Sprague-Dawley rat at 10 mg/kg, po measured for 24 hrs by UPLC-MS/MS analysis. The data set is classed as ADME, organism-based. Particulars: in vivo.
The nature of data set [8]: AUC (total) in Pentagastrine-pretreated Sprague-Dawley rat at 10 mg/kg, po measured for 24 hrs by UPLC-MS/MS analysis. The data set is classed as ADME, organism-based. Particulars: in vivo.
The nature of data set [9]: Cmax in Famotidine-pretreated Sprague-Dawley rat at 10 mg/kg, po measured for 24 hrs by UPLC-MS/MS analysis. Particulars: in vivo. The class given is ADME, organism-based.
A short description of data set [10]: Cmax in Pentagastrine-pretreated Sprague-Dawley rat at 10 mg/kg, po measured for 24 hrs by UPLC-MS/MS analysis. The class given is ADME, organism-based. Conditions: in vivo.
Data set [11] can be described thus: Tmax in Pentagastrine-pretreated Sprague-Dawley rat at 10 mg/kg, po measured for 24 hrs by UPLC-MS/MS analysis. The data set is classed as ADME, organism-based. Conditions: in vivo.
The nature of data set [12]: physchem. Conditions: aqueous buffer, pH 4.
Description: Solubility of compound in aqueous buffer at pH 4 at 25 degreeC by reversed phase-HPLC analysis

This note sets out measurements from ChEMBL document CHEMBL6092222 (J Med Chem, 2024).

Values after ≈ are worked out from the molar mass of the structure shown. Where only a bound is given, the exact number is not on record here.

A word on the half-life: it is how long it takes for the measured level to halve. As a reminder, the solubility is the concentration that dissolves in the medium under given conditions. With `[2H]C([2H])([2H])NC(=O)c1cn(COC(=O)c2ccc(COP(=O)(O)O)cc2)/c(=N/C(=O)C2CC2)cc1Nc1cccc(-c2nnn(C)n2)c1OC`, the half-life in data set [1] was 334 h; in data set [2] it was 130 h; in data set [5], 334 h. Further, the solubility in “physchem [3]” and in the data set “physchem [4]” was 1 µg/mL (≈ 1.49 µM) in each case.

For orientation: Tmax means the time from dosing to the highest level. The AUC is the area under the concentration-time curve, a measure of exposure. What is called Cmax is the maximum level reached in the sampled fluid or tissue. Take `Cl.[2H]C([2H])([2H])NC(=O)c1cnc(NC(=O)C2CC2)cc1Nc1cccc(-c2nnn(C)n2)c1OC`: the values for the Tmax in data set [6] and in data set [11] were 4 h and 5.5 h, respectively. Moreover, the AUC at 24 h amounted to 5.5 µM·h in [7] and 53.4 µM·h in data set [8]. In addition, the Cmax in data set [9] came out at 0.8 µM; in data set [10], 7.1 µM.

For the molecule `NC(CO)(CO)CO.[2H]C([2H])([2H])NC(=O)c1cn(COP(=O)(O)O)/c(=N/C(=O)C2CC2)cc1Nc1cccc(-c2nnn(C)n2)c1OC`, the results for the solubility in “physchem [12]”, in “physchem [3]” and in “physchem [4]” were 2 µg/mL, 1 µg/mL and 141 µg/mL, respectively.

`[2H]C([2H])([2H])NC(=O)c1cn(COC(=O)CC(C)(C)c2c(C)cc(C)cc2OP(=O)(O)O)/c(=N/C(=O)C2CC2)cc1Nc1cccc(-c2nnn(C)n2)c1OC`: the half-life in data set [1] is 274 h; in [2], 7.7 h; in data set [5], 64 h. Besides, the solubility came out at 44 µg/mL (≈ 59.5 µM) in “physchem [12]” and 22 µg/mL (≈ 29.7 µM) in the data set “physchem [3]”.

In the case of `[2H]C([2H])([2H])N(COP(=O)([O-])[O-])C(=O)c1cnc(NC(=O)C2CC2)cc1Nc1cccc(-c2nnn(C)n2)c1OC.[Na+].[Na+]`, the half-life is 0.7 h in data set [1] and 71.8 h in [2]. Further, in “physchem [4]”, the solubility is 2500 µg/mL.

Consider `NCCCC[C@H](N)C(=O)O.[2H]C([2H])([2H])NC(=O)c1cn(COP(=O)(O)O)/c(=N/C(=O)C2CC2)cc1Nc1cccc(-c2nnn(C)n2)c1OC`, for which the solubility came to 9 µg/mL in the data set “physchem [12]”, 4 µg/mL in “physchem [3]” and 308 µg/mL in “physchem [4]”.

For `CNCC(=O)OCc1cccnc1N(C)C(=O)OCn1cc(C(=O)NC)c(Nc2cccc(-c3nnn(C)n3)c2OC)c/c1=N\C(=O)C1CC1.Cl`, the half-life in data set [1] was 72 h; in data set [2], 5.7 h; in [5], 334 h. For the same molecule, the solubility in the data set “physchem [12]” came to 580 µg/mL; in the data set “physchem [3]” it was 650 µg/mL.

For `[2H]C([2H])([2H])NC(=O)c1cn(COC(=O)c2ccc(OP(=O)(O)O)c(OC)c2)/c(=N/C(=O)C2CC2)cc1Nc1cccc(-c2nnn(C)n2)c1OC`, the half-life was 215 h in data set [1], 84 h in data set [2] and above 500 h in [5]. Besides, the solubility is 58 µg/mL (≈ 84.6 µM) in “physchem [12]”, below 1 µg/mL in “physchem [3]” and 1000 µg/mL (≈ 1460 µM) in “physchem [4]”.
